15 compounds from patent US11685719B2, “Pyridinone MK2 inhibitors and uses thereof” (Xinthera, Inc., priority 2021, dated 2023) can be followed below.

One test has as its target p38a/PRAK (Homo sapiens (Human), UniProt Q16539). Briefly: biochemical. As to conditions: 10-point 1:3 dilution, top dose 300 μM; 10 μM ATP, 2 h incubation; read-out: p38a/PRAK Enzyme pIC50 (converted). The procedure:
(§1) Expression vectors of the recombinant MK2 and PRAK kinases were constructed by cloning of the codon optimized gene sequences of MK2 (Uniprot ID P49137, amino acid fragment F46-H400), or PRAK (Uniprot ID Q81W41, amino acid fragment M1-Q471) into pGEX-4T1 (GE) for over expression of these kinases with N-terminal GST-tag. Protein expression was carried out in E. coli BL21 by growing the hosts in TB medium, induction of protein expression with 0.5 mM IPTG at approximate 0.8 OD600, and incubation of the cultures at 18° C. for 14-20 hours afterwards. The harvested cells were resuspended in […] of Lysis buffer (50 mM Tris-HCl, pH 8.0, 500 mM NaCl, 1 mM DTT, 5% glycerol, and 1 mM PMSF) per gram of wet cell mass and homogenized at 4° C. in a microfluidizer (ATS, Suzhou, China) at 14,000 psi pressure, 3 passes. The cell lysates were clarified by centrifugation and the supernatants containing the GST-fusion proteins were purified by affinity chromatography using GSH-Sepharose (GE) gravity flow columns pre-equilibrated in Buffer A (50 mM Tris-HCl, pH 8.0, 500 mM NaCl, 1 mM DTT, and 5% glycerol). After thorough washing of the columns with Buffer A, the bound GST-proteins were eluted by Buffer B (50 mM Tris, pH 8.0, 500 mM NaCl, 1 mM DTT, 5% glycerol, 10 mM glutathione), followed by size-exclusion purification on Superdex 200 column equilibrated in Buffer A. The purified proteins were concentrated to approximately 1 mg/ml and stored at −80° C.
(§2) This study evaluates the inhibitory potency of invention compound on p38/MK2 pathway vs p38/PRAK pathway. More specially the compound concentration (IC50) was determined that inhibited half of the maximal activation of MK2 or PRAK by p38. MK2 activation study was set up without or with a serial of 10-point 1:3 dilution of invention compound at top dose of 1 or 10 μM, and PRAK activation study was set up without or with a serial of 10-point 1:3 dilution of invention compound at top dose of 300 μM. The MIK2 and PRAK activity were determined by the phosphorylation level of HSP27 peptide conjugated with FITC.

The next test addresses p38a/MK2 (Homo sapiens (Human), UniProt P49137+Q16539). Briefly: biochemical. As to conditions: 10-point 1:3 dilution, top dose 1 μM; 10 μM ATP, 2 h incubation; read-out: p38a/MK2 (1 μM) Enzyme pIC50 (converted). The procedure:
as §1, §2

Chain of p38a/PRAK (Q16539 whole entry, the tested form may be a part): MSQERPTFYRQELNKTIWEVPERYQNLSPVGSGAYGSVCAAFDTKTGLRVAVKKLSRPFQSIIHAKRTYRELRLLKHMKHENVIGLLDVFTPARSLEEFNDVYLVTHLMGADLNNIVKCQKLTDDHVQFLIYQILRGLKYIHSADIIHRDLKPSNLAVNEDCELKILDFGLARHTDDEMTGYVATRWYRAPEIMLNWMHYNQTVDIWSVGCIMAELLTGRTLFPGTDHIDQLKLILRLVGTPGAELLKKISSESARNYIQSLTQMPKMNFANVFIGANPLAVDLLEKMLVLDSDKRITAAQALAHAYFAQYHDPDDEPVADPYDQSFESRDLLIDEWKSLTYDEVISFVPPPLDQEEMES
Chain of p38a/MK2 (Q16539 whole entry): as the sequence (Q16539 whole entry, the tested form may be a part) above
Chain of p38a/MK2 (P49137 46-400): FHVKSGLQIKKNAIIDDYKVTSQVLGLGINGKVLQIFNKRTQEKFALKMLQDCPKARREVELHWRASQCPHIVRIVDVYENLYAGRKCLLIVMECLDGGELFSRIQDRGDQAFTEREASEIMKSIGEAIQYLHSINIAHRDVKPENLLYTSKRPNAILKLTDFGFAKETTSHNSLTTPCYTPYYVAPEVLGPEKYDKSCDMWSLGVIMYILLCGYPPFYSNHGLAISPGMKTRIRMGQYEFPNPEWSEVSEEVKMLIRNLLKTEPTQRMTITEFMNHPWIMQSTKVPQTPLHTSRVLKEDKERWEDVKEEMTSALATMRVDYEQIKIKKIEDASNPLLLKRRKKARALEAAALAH

As for `[2H]C([2H])(Oc1cc(C)n(-c2cc(-n3cccc(C(C)(C)O)c3=O)ncc2C)c(=O)c1Cl)c1ncc(F)cc1F` (single isomer, unassigned) [Example 18B, rel-3″-chloro-4″-((3,5-difluoropyridin-2-yl)methoxy-d2)-3-(2-hydroxypropan-2-yl)-5′,6″-dimethyl-2H,2″H-[1,2′:4′,1″-terpyridine]-2,2″-dione], the IC50 on p38a/PRAK was greater than 316000 nM; at p38a/MK2, greater than 100 nM.
On to `[2H]C([2H])(Oc1cc(C)n(-c2cc(-n3ccnc(C(C)(C)O)c3=O)ncc2C)c(=O)c1Cl)c1ncc(F)cc1F` (single isomer, unassigned) [Example 19A, rel-3-chloro-4-((3,5-difluoropyridin-2-yl)methoxy-d2)-2′-(3-(2-hydroxypropan-2-yl)-2-oxopyrazin-1(2H)-yl)-5′,6-dimethyl-2H-[1,4′-bipyridin]-2-one], for which the figures for the IC50 at p38a/PRAK and at p38a/MK2 were 1580 nM and 1 nM, respectively.
Take `[2H]C([2H])(Oc1cc(C)n(-c2cc(-n3ccnc(C(C)(C)O)c3=O)ncc2C)c(=O)c1Cl)c1ncc(F)cc1F` (single isomer, unassigned) [Example 19B, rel-3-chloro-4-((3,5-difluoropyridin-2-yl)methoxy-d2)-2′-(3-(2-hydroxypropan-2-yl)-2-oxopyrazin-1(2H)-yl)-5′,6-dimethyl-2H-[1,4′-bipyridin]-2-one]: the IC50 on p38a/PRAK was greater than 316000 nM; on p38a/MK2 it was 794 nM.
On to `[2H]C([2H])(Oc1cc(C)n(-c2cc(-n3ccnc(C(C)(C)O)c3=O)ncc2C)c(=O)c1Cl)c1ncc(Cl)cc1F` (single isomer, unassigned) [Example 20A, rel-3-chloro-4-((5-chloro-3-fluoropyridin-2-yl)methoxy-d2)-2′-(3-(2-hydroxypropan-2-yl)-2-oxopyrazin-1(2H)-yl)-5′,6-dimethyl-2H-[1,4′-bipyridin]-2-one], for which the figures for the IC50 on p38a/PRAK and at p38a/MK2 were 3160 nM and 1 nM, respectively.
As for `[2H]C([2H])(Oc1cc(C)n(-c2cc(-n3ccnc(C(C)(C)O)c3=O)ncc2C)c(=O)c1Cl)c1ncc(Cl)cc1F` (single isomer, unassigned) [Example 20B, rel-3-chloro-4-((5-chloro-3-fluoropyridin-2-yl)methoxy-d2)-2′-(3-(2-hydroxypropan-2-yl)-2-oxopyrazin-1(2H)-yl)-5′,6-dimethyl-2H-[1,4′-bipyridin]-2-one], the IC50 at p38a/PRAK was greater than 316000 nM; at p38a/MK2, 316 nM.
Consider `[2H]C([2H])(Oc1cc(C)n(-c2cc(-n3cccc(C(C)(C)O)c3=O)ncc2C)c(=O)c1Cl)c1ncc(Cl)cc1F` (single isomer, unassigned) [Example 21A, rel-3-chloro-4-[(5-chloro-3-fluoropyridin-2-yl)(2H2)methoxy]-2′-[3-(2-hydroxypropan-2-yl)-2-oxopyridin-1-yl]-5′,6-dimethyl-[1,4′-bipyridin]-2-one], for which the values for the IC50 at p38a/PRAK and on p38a/MK2 were 5010 nM and 1.26 nM, respectively.
On to `[2H]C([2H])(Oc1cc(C)n(-c2cc(-n3cccc(C(C)(C)O)c3=O)ncc2C)c(=O)c1Cl)c1ncc(Cl)cc1F` (single isomer, unassigned) [Example 21B, rel-3-chloro-4-[(5-chloro-3-fluoropyridin-2-yl)(2H2)methoxy]-2′-[3-(2-hydroxypropan-2-yl)-2-oxopyridin-1-yl]-5′,6-dimethyl-[1,4′-bipyridin]-2-one], for which the IC50 was greater than 316000 nM at p38a/PRAK and greater than 1000 nM on p38a/MK2.
`[2H]C([2H])(Oc1cc(C)n(-c2cc(-n3ccnc(C(C)(C)O)c3=O)ncc2C)c(=O)c1Cl)c1ncc(F)cc1Cl` (single isomer, unassigned) [Example 22A, rel-3-chloro-4-((3-chloro-5-fluoropyridin-2-yl)methoxy-d2)-2′-(3-(2-hydroxypropan-2-yl)-2-oxopyrazin-1(2H)-yl)-5′,6-dimethyl-2H-[1,4′-bipyridin]-2-one]: the IC50 on p38a/PRAK is 3980 nM; at p38a/MK2 it was 2 nM.
In the same order, the values of `[2H]C([2H])(Oc1cc(C)n(-c2cc(-n3ccnc(C(C)(C)O)c3=O)ncc2C)c(=O)c1Cl)c1ncc(F)cc1Cl` (single isomer, unassigned) [Example 22B, rel-3-chloro-4-((3-chloro-5-fluoropyridin-2-yl)methoxy-d2)-2′-(3-(2-hydroxypropan-2-yl)-2-oxopyrazin-1(2H)-yl)-5′,6-dimethyl-2H-[1,4′-bipyridin]-2-one] are greater than 316000 nM and greater than 100 nM.
On to `[2H]C([2H])(Oc1cc(C)n(-c2cc(-n3cccc(C(C)(C)O)c3=O)ncc2C)c(=O)c1Cl)c1ncc(F)cc1Cl` (single isomer, unassigned) [Example 23A, rel-4′-{3-chloro-4-[(3-chloro-5-fluoropyridin-2-yl)(2H2)methoxy]-6-methyl-2-oxopyridin-1-yl}-3-(2-hydroxypropan-2-yl)-5′-methyl-[1,2′-bipyridin]-2-one], for which the figures for the IC50 at p38a/PRAK and on p38a/MK2 were 6310 nM and 2.51 nM, respectively.
Turning to `[2H]C([2H])(Oc1cc(C)n(-c2cc(-n3cccc(C(C)(C)O)c3=O)ncc2C)c(=O)c1Cl)c1ncc(F)cc1Cl` (single isomer, unassigned) [Example 23B, rel-4′-{3-chloro-4-[(3-chloro-5-fluoropyridin-2-yl)(2H2)methoxy]-6-methyl-2-oxopyridin-1-yl}-3-(2-hydroxypropan-2-yl)-5′-methyl-[1,2′-bipyridin]-2-one], the results for the IC50 on p38a/PRAK and on p38a/MK2 were greater than 316000 nM and greater than 100 nM, respectively.
In the case of `Cc1cnc(-n2ccnc(C(C)(C)O)c2=O)cc1-n1c(C)cc(OCc2ncc(F)cc2Cl)c(Cl)c1=O` (single isomer, unassigned) [Example 24A, rel-3-chloro-4-[(3-chloro-5-fluoropyridin-2-yl)methoxy]-2′-[3-(2-hydroxypropan-2-yl)-2-oxopyrazin-1-yl]-5′,6-dimethyl-[1,4′-bipyridin]-2-one], the IC50 at p38a/PRAK was greater than 316000 nM; at p38a/MK2, greater than 1000 nM.
In the same order, the values of `Cc1cnc(-n2ccnc(C(C)(C)O)c2=O)cc1-n1c(C)cc(OCc2ncc(F)cc2Cl)c(Cl)c1=O` (single isomer, unassigned) [Example 24B, rel-3-chloro-4-[(3-chloro-5-fluoropyridin-2-yl)methoxy]-2′-[3-(2-hydroxypropan-2-yl)-2-oxopyrazin-1-yl]-5′,6-dimethyl-[1,4′-bipyridin]-2-one] are 5010 nM and 2.51 nM.
Regarding `Cc1cnc(-n2cccc(C(C)(C)O)c2=O)cc1-n1c(C)nc(OCc2ncc(F)cc2F)c(Cl)c1=O` (single isomer, unassigned) [Example 25A, rel-4′-{5-chloro-4-[(3,5-difluoropyridin-2-yl)methoxy]-2-methyl-6-oxopyrimidin-1-yl}-3-(2-hydroxypropan-2-yl)-5′-methyl-[1,2′-bipyridin]-2-one], the IC50 on p38a/PRAK is 6310 nM; on p38a/MK2, 3.98 nM.
In the same order, the values of `Cc1cnc(-n2cccc(C(C)(C)O)c2=O)cc1-n1c(C)nc(OCc2ncc(F)cc2F)c(Cl)c1=O` (single isomer, unassigned) [Example 25B, rel-4′-{5-chloro-4-[(3,5-difluoropyridin-2-yl)methoxy]-2-methyl-6-oxopyrimidin-1-yl}-3-(2-hydroxypropan-2-yl)-5′-methyl-[1,2′-bipyridin]-2-one] are greater than 316000 nM and 631 nM.
